In patent US20030144360A1, “Composition and method for modulating BAR/FXR receptor activity” (Allergan Sales, Inc., priority 2001, published 2003):

Experiments:
Caco-2 cells = experiment: Northern blot analysis of BAR/FXR target genes in differentiated Caco-2 cells; assay type: cell-based, human; settings: for IBABP expression / SHP expression: 10 μM, 24 hours
Method: Caco-2 cells were maintained for 20 days post-confluence to allow differentiation. They were fed twice a week with their regular media during this period.
One day prior to treatment, confluent HepG2 and differentiated Caco-2 cells were switched to phenol red-free media containing resin-charcoal stripped FBS and then treated for and additional 24 hours with the indicated compounds. Total RNA was isolated using the Trizol reagent. Northern blots were prepared from polyA^+ RNA using the Oligotex method (Qiagen) and analyzed with the following probes: human CYP7A (accession #M93133) nucleotides 1617-2576 (Karam and Chiang, 185 Biochem. Biophys. Res. Commun. 588 (1992)), human SHP (accession #L76571) nucleotides 888-1355, human IBABP (accession # A1311734), an EST containing the entire coding sequence of IBABP.
We next tested the ability of AGN 29 and AGN 31 to regulate BAR/FXR target genes. We used the hepatoma cell line HepG2 as a hepatocyte model as this cell line has been used extensively to study cholesterol metabolism and bile acid-mediated gene regulation. We monitored the expression of two well known BAR/FXR target genes: CYP7A, the rate-limiting enzyme for bile acid synthesis, is down regulated by bile acids in HepG2 cells.

BAR-RXRm heterodimers = molecular target: T1, BAR-RXRm heterodimers (Rattus norvegicus, UniProt Q62735); experiment: Co-activator (GRIP1) recruitment gel shift assay, BAR-RXRm heterodimer; assay type: binding; settings: for recruitment of co-activator GRIP1 (gel shift): 32P-labeled IBABP IR1 response element, range of doses
T1 construct: nucleic acid regions encoding the following full-length proteins were cloned into a CMV expression vector; made in house; host or cells: receptors: in vitro translation; GST-GRIP1: E. coli
T1 sequence (Q62735 1-469): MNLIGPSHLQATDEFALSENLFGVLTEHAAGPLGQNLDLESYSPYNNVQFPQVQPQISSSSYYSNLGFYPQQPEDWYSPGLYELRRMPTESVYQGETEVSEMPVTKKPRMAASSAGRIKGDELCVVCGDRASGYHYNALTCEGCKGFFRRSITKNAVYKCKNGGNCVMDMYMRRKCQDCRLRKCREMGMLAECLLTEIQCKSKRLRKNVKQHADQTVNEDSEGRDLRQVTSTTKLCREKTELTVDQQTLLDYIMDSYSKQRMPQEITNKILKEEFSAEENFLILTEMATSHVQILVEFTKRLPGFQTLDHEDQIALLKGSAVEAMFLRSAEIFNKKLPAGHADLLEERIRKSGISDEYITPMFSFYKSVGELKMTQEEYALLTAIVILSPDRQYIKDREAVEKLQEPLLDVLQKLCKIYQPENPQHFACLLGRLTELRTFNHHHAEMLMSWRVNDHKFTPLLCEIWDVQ
T1 sequence (P19793 1-462 D322P partner): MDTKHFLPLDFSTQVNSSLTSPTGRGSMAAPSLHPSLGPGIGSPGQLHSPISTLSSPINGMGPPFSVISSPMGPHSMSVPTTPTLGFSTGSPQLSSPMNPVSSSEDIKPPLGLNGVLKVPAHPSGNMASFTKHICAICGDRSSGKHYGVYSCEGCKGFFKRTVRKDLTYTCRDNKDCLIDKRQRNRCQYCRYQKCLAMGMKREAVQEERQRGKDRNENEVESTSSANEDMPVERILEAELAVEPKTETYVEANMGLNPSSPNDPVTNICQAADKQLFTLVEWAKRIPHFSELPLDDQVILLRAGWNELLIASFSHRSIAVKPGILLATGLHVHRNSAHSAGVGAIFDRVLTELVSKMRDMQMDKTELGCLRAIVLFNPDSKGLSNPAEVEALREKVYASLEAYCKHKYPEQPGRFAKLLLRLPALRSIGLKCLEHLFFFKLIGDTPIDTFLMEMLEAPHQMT
Description: Coactivators, which bind agonist-activated nuclear receptors including, without limitation, RAR and RXR, function to assist the activated nuclear receptor exert its activity as a transcription factor. Characterized co-activators include CBP, p300, RIP140, SRC-1, ACTR, TIF2 (also called GRIP 1) and TIFI. In most cases coactivator will not bind the receptor in the absence of an agonist, moreover, receptor antagonists will often block coactivator binding, either directly or through the recruitment of a corepressor. Coactivator recruitment assays are therefore a valuable method for directly visualizing associative changes to a receptor caused by the addition of a prospective ligand.
GRIP 1 was expressed as a fusion protein with glutathione-S-transferase, an enzyme which selectively binds glutathione and can thus be used as an affinity reagent. See e.g., U.S. Pat. No. 5,654,176. The GST-GRIP1 fusion protein was expressed in E. coli and purified on glutathione-Sepharose columns. In vitro translated BAR/FXR\RXR (0.6-1.2 μl each) and GST-GRIP 1 (5 μg) were incubated for 30 min at room temperature with 100,000 cpm of the E. coli DNA polymerase Klenow fragment-labeled probes in 10 mM Tris (pH 8.0), 50 mM KCl, 6% glycerol, 0.05% NP-40, 1 mM DTT, 12.5 ng/μl poly dI-dC, and the indicated ligands. Complexes were electrophoresed through 5% polyacrylamide gel in […] (45 mM Tris-base, 45 mM boric acid, 1 mM EDTA) at room temperature. […]
To address the question of whether the two identified compounds are ligands for BAR, we used an in vitro co-activator recruitment assay. […] Because the association between co-activator and receptor results in the formation of a new higher molecular weight species, the ligand-dependent recruitment of co-activator can be detected in gel shift assays and is commonly used as an indicator for ligand binding. […]

competition (GRIP1 displacement) with BAR/RXRm heterodimer (BAR-RXRm heterodimers; AGN 29 as agonist, increasing AGN 34)	SMILES	IBABP expression (Caco-2 cells)	SHP expression (Caco-2 cells)	recruitment of co-activator GRIP1 (gel shift) (BAR-RXRm heterodimers)	basal SHP levels (Caco-2 cells; 1 μM AGN 34, 24 hours)	CDCA-induced IBABP levels (Caco-2 cells; 100 μM CDCA + 1 μM AGN34, 24 hours)
–	CCCC/C(=C\c1ccc(C(=O)O)cc1)c1ccc2c(c1)C(C)(C)CCC2(C)C [AGN 31, 4-[2-(5,5,8,8-Tetramethyl-5,6,7,8-tetrahydronaphthalen-2-yl)hex-1-enyl]benzoic Acid]	strongly induced	strongly induced	shifted the majority of the complexes	–	–
–	Cc1cc2c(cc1/C(=C/c1ccc(C(=O)O)cc1)[Si](C)(C)C)C(C)(C)CCC2(C)C [AGN 29, (Z)-4-[2-(3,5,5,8,8-Pentamethy1-5,6,7,8-tetrahydronaphthalen-2-yl)-2-(trimethylsilyl)vinyl]benzoic Acid]	strongly induced	strongly induced	shifted the majority of the complexes	–	–
same results	CCCCCCOc1c(\C(C)=C/C=C/C(C)=C/C(=O)O)cc(C(C)C)cc1C(C)C [AGN 34, (2E, 4E, 6Z)-7-(2-Hexyloxy-3,5-diisopropylphenyl)-3-methylocta-2,4,6-trienoic Acid]	–	–	–	did not affect	reduced the induced IBABP levels close to basal levels
